Laboratory results taken from PubChem BioAssay (NCI).
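Five concentrations, 48 hours, 96-well plates. GI50 marks 50% less growth. Definition used: TGI = concentration required for complete inhibition of growth.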

Tests used:
Experiment in all cases: NCI anticancer screen, dose series, 48 h
[1] = test system: MALME-3M melanoma
[2] = test system: SNB-75 CNS
[3] = test system: HL-60(TB) leukemia
[4] = test system: SK-OV-3 ovarian
[5] = test system: SF-539 CNS
[6] = test system: K-562 leukemia
[7] = test system: NCI-H23 lung
[8] = test system: HT29 colon
[9] = test system: HS 578T breast
[10] = test system: TK-10 renal

CCCCOc1ccc(OCCCCCCCCCC[N+](C)(C)C)cc1
TGI [1]: 16 µM | TGI [2]: 6.44 µM | TGI [3]: 1.49 µM | TGI [4]: 10.8 µM | TGI [5]: 14.3 µM | TGI [6]: 15.4 µM | TGI [7]: 11 µM | TGI [8]: 2.46 µM

Cc1cc2c(O)c(c1)CN(CC(=O)O)Cc1cc(C)cc(c1O)CN(CC(=O)O)Cc1cc(C)cc(c1O)CN(CC(=O)O)C2
TGI [1]: > 100 µM | TGI [9]: > 100 µM | TGI [2]: > 100 µM | TGI [4]: > 100 µM | TGI [5]: > 100 µM | TGI [10]: > 100 µM | TGI [6]: > 100 µM | TGI [7]: > 100 µM | TGI [8]: > 100 µM

COc1ccc(Nc2nc(N)c(C(=O)c3c[nH]c4ccccc34)s2)cc1
TGI [1]: 21.6 µM | TGI [2]: 6.56 µM | TGI [3]: 14 µM | TGI [4]: > 100 µM | TGI [5]: > 36.9 µM | TGI [10]: > 30.7 µM | TGI [7]: > 95 µM | TGI [8]: 4.57 µM

Cn1c(=O)c(-c2ccccc2)c(O)c2ccccc21
TGI [1]: > 100 µM | TGI [9]: > 100 µM | TGI [2]: > 100 µM | TGI [3]: > 100 µM | TGI [5]: > 100 µM | TGI [10]: > 100 µM | TGI [6]: > 100 µM | TGI [7]: > 100 µM | TGI [8]: > 100 µM

C/C(Cl)=N\OC(=O)Nc1ccc(C)cc1
TGI [1]: 31 µM | TGI [9]: 83 µM | TGI [2]: 26.3 µM | TGI [4]: 31.1 µM | TGI [5]: 35.8 µM | TGI [10]: 28.5 µM | TGI [6]: > 100 µM | TGI [7]: 39 µM | TGI [8]: 41.6 µM

CN(C)CCNC(=O)c1cc(Cl)cc2ccc(-c3ccccc3)nc12
TGI [1]: 8.26 µM | TGI [2]: 14 µM | TGI [3]: 4.88 µM | TGI [4]: 12.8 µM | TGI [5]: 9.18 µM | TGI [6]: 8.17 µM | TGI [7]: 14.4 µM | TGI [8]: 10.7 µM

Cc1ccc(C(=O)N/N=C(\N=Nc2ccccc2)c2ccc(N(C)C)cc2)cc1
TGI [3]: > 100 µM | TGI [4]: > 100 µM | TGI [5]: > 100 µM | TGI [10]: > 100 µM | TGI [6]: > 100 µM | TGI [7]: > 100 µM | TGI [8]: > 100 µM

COc1cc(-c2n/c(=C\c3c(O)[nH]c4ccc(Cl)cc34)cc3c2=Nc2ccccc2-3)ccc1F
GI50 [9]: 2.07 µM | TGI [9]: 5.92 µM | GI50 [2]: 1.69 µM | TGI [2]: 4.6 µM | GI50 [3]: 10.9 µM | TGI [3]: 34.7 µM | GI50 [4]: 2.29 µM | TGI [4]: 5.3 µM | GI50 [5]: 2.79 µM | TGI [5]: 9.87 µM | GI50 [10]: 2.51 µM | TGI [10]: 4.43 µM | GI50 [6]: 2.22 µM | TGI [6]: 5.98 µM | GI50 [7]: 1.73 µM | TGI [7]: 3.42 µM

N#C/C(=C/n1c(=S)[nH]c2ccc([N+](=O)[O-])cc21)C(N)=O
TGI [1]: > 100 µM | TGI [9]: > 100 µM | TGI [2]: > 100 µM | TGI [3]: > 100 µM | TGI [4]: > 100 µM | TGI [5]: > 100 µM | TGI [10]: > 100 µM | TGI [7]: > 100 µM | TGI [8]: > 100 µM

O=C1NC2CCCCC2N=C1CC(=O)c1ccc(Br)cc1 (stereo not drawn)
TGI [1]: > 100 µM | TGI [9]: 42.1 µM | TGI [3]: > 100 µM | TGI [4]: > 100 µM | TGI [5]: > 100 µM | TGI [10]: > 100 µM | TGI [6]: > 100 µM | TGI [7]: > 100 µM | TGI [8]: > 100 µM

O=c1cc(-c2ccncc2)[nH]c2cc3c(cc12)OCO3
TGI [9]: > 100 µM | TGI [2]: > 100 µM | TGI [4]: > 100 µM | TGI [5]: > 100 µM | TGI [10]: > 100 µM | TGI [7]: > 100 µM | TGI [8]: > 100 µM

CS(=O)(=O)CSCSSCS(C)(=O)=O
TGI [1]: > 100 µM | TGI [2]: > 100 µM | TGI [3]: 55.7 µM | TGI [4]: > 100 µM | TGI [5]: 53.5 µM | TGI [10]: > 100 µM | TGI [6]: > 95.5 µM | TGI [7]: > 95.9 µM | TGI [8]: > 100 µM

COc1cccc2c1C(=O)c1c(O)c3c(c(O)c1C2=O)C[C@H](O)C[C@@H]3OC1CC(N)C(O)C(C)O1 (stereo partly drawn)
TGI [1]: 3.57 µM | TGI [9]: 5.97 µM | TGI [2]: 15.3 µM | TGI [4]: 14.8 µM | TGI [5]: 11.2 µM | TGI [10]: 7.15 µM | TGI [6]: 10.1 µM | TGI [7]: 3.18 µM | TGI [8]: 14.1 µM

O=S(=O)(O)c1ccc(N=Nc2ccc(N=Nc3ccc(/C=C/c4ccc(N=[N+]([O-])c5ccc(/C=C/c6ccc(N=Nc7ccc(N=Nc8ccc(S(=O)(=O)O)cc8)cc7)cc6S(=O)(=O)O)c(S(=O)(=O)O)c5)cc4S(=O)(=O)O)c(S(=O)(=O)O)c3)cc2)cc1
TGI [1]: > 100 µM | TGI [2]: > 100 µM | TGI [3]: > 100 µM | TGI [4]: > 100 µM | TGI [5]: > 100 µM | TGI [6]: > 100 µM | TGI [7]: > 100 µM | TGI [8]: > 100 µM

CCOC(=O)C1(C#N)C(c2ccccc2)CC(O)(c2ccc(Cl)cc2)C(C(=O)c2ccc(Cl)cc2)C1c1ccccc1 (stereo not drawn)
TGI [1]: > 100 µM | TGI [2]: 48.9 µM | TGI [3]: > 100 µM | TGI [4]: > 100 µM | TGI [10]: > 100 µM | TGI [7]: > 100 µM | TGI [8]: > 100 µM

CSc1cc(=O)n2c3ccccc3c3ccnc1c32
TGI [1]: > 100 µM | TGI [2]: > 94.3 µM | TGI [3]: > 100 µM | TGI [4]: 97.5 µM | TGI [5]: > 71.4 µM | TGI [6]: > 100 µM | TGI [7]: > 100 µM | TGI [8]: > 100 µM

COC(=O)C1=C(C(=O)OC)SC(=CC#CC=C2SC(C(=O)OC)=C(C(=O)OC)S2)S1
TGI [1]: 64.1 µM | TGI [2]: 19.3 µM | TGI [3]: > 100 µM | TGI [4]: 31.5 µM | TGI [5]: 4.86 µM | TGI [10]: 23.9 µM | TGI [6]: > 100 µM | TGI [7]: 17.8 µM | TGI [8]: > 100 µM

COc1cc2cc(C(=O)N3C[C@H](CCl)c4c3cc(N)c3ccccc43)[nH]c2c(OC)c1OC
TGI [1]: 0.0103 µM | GI50 [2]: 0.0123 µM | TGI [2]: 0.0458 µM | GI50 [3]: 0.0171 µM | TGI [3]: 0.164 µM | GI50 [4]: 0.0398 µM | TGI [4]: 0.819 µM | TGI [5]: 3.3 µM | TGI [10]: 10.3 µM | GI50 [6]: 0.005 µM | TGI [6]: > 50 µM | GI50 [8]: 0.005 µM | TGI [8]: 0.615 µM

CC(C)C(CC(=O)OCC(CO)OC(=O)CC(C(C)C)C(C)C)C(C)C (stereo not drawn)
TGI [1]: 28.4 µM | TGI [9]: 21.5 µM | TGI [2]: 21.8 µM | TGI [4]: 30.9 µM | TGI [10]: 26.3 µM | TGI [6]: 33 µM | TGI [7]: 30.4 µM | TGI [8]: 32.1 µM

NC(=O)c1csc(C2(O)COC(CO)C2O)n1 (stereo not drawn)
TGI [1]: > 100 µM | TGI [9]: > 100 µM | TGI [2]: > 100 µM | TGI [4]: > 100 µM | TGI [5]: > 100 µM | TGI [10]: > 100 µM | TGI [7]: > 100 µM | TGI [8]: > 100 µM

COc1ccccc1CN=C1Nc2ccncc2S(=O)(=O)N1c1ccccc1
TGI [1]: > 100 µM | TGI [9]: > 100 µM | TGI [3]: > 100 µM | TGI [4]: > 100 µM | TGI [10]: > 100 µM | TGI [6]: > 100 µM | TGI [7]: > 100 µM | TGI [8]: > 100 µM

Cc1[nH]c(=O)nc(NCCNCCO)c1C(=O)Nc1cccc2cc3ccccc3cc12
TGI [1]: > 100 µM | TGI [9]: > 100 µM | TGI [2]: > 100 µM | TGI [3]: > 100 µM | TGI [5]: > 100 µM | TGI [10]: > 100 µM | TGI [6]: > 100 µM | TGI [7]: > 100 µM | TGI [8]: > 100 µM

S=C(N/N=C\C(=N/NC(=S)N1CCCCC1)c1ccccc1)N1CCCCC1
TGI [1]: 3.57 µM | TGI [9]: 5.23 µM | TGI [2]: 3.72 µM | TGI [4]: 3.37 µM | TGI [5]: 6.7 µM | TGI [10]: 3.25 µM | TGI [6]: > 100 µM | TGI [8]: 4.61 µM
